These results are taken from paper PMC4494873 (Bioorganic & medicinal chemistry letters, 2015).

The test system of data set [1] is Multiple HSV-2 (including 186). The conditions noted are these: Vero, multiple HSV-2 isolates including 186; ref [32], [33]; cited from earlier work.
The next data set relates to HIV-1 virus. As to the kind of experiment: Anti-HIV activity: Jurkat cells infected with HIV-1, MTT assay and RT assay. Format: cell-based. The conditions noted are these: 1 μg/mL or 5 μg/mL, compared with DMSO and AZT.
The next data set has as its system HSV-2 186. Put plainly: Viral replication yield reduction assay. Format: cell-based, herpes simplex virus type-2 (HSV-2). Particulars: selectivity index, Vero.
Data set [2] deals with human serum albumin (HSA) (Homo sapiens, UniProt P02768). As to the kind of experiment: Fluorescence titration with HSA. Format: binding.
Sequence of human serum albumin (HSA) (P02768 25-609): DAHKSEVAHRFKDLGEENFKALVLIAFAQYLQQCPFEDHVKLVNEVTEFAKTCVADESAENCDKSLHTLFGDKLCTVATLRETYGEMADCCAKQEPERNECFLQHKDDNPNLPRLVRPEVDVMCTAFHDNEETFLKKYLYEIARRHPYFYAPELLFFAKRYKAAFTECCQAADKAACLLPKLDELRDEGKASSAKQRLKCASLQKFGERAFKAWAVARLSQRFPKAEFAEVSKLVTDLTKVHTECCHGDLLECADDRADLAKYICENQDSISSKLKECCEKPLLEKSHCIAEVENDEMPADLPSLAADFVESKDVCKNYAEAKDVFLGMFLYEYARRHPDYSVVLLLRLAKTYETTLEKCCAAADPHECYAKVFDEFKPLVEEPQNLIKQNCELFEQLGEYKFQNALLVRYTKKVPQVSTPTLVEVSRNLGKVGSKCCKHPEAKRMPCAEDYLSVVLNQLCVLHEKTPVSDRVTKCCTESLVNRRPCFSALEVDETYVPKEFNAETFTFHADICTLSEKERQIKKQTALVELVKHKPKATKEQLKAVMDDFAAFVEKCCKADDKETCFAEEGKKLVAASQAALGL
The conditions of data set [3]: cited from earlier work.
A further data set relates to HSA. The conditions noted are these: betulinic acid 0.01−0.1 mM, HSA 0.025 mM, fluorescence excitation at 285 nm; ref [34]; cited from earlier work.
For a further data set, the system named is Vero cells. As to the kind of experiment: Cytotoxicity in Vero cells.

“Also recorded” adds a separate entry of the source.

Regarding `Nc1nc2c(ncn2COCCO)c(=O)[nH]1` [Acyclovir], the IC50 in data set [1] was 0.1 to 10 µM.
For the compound `C=C(C)[C@@H]1CC[C@]2(C(=O)O)CC[C@]3(C)[C@H](CC[C@@H]4[C@@]5(C)CC[C@H](O)C(C)(C)[C@@H]5CC[C@]43C)[C@@H]12` [Compound 1, 3β-hydroxy-lup-20(29)-en-28-oic acid], the “inhibitory activity of HIV-1 RT (in words)” value in the data set with HIV-1 virus is recorded as “no inhibitory activity”. In the data set on HSV-2 186, the SI was over 62.5. Further, the Kd in data set [2] (Kd (285 nm), fluorescence excitation at 285 nm) is 4.5 µM. This compound also yielded a Kd in data set [2] (Kd (295 nm), fluorescence excitation at 295 nm) of 1.3 µM. Also, in data set [3] (25 °C, ref [23]), the “solubility in DMSO” value was 5 % (w/v) and the solubility in ethanol is given as 1 % (w/v). In data set [3] (room temperature, ref [22]), the solubility in water entry was “about 0.02 μg mL^−1”. Besides, in the data set on HSA, the “binding constant with HSA” value is 1.685e+06 M⁻¹. In the data set on Vero cells, the “cellular cytotoxicity (in words)” value is recorded as “low cytotoxicity; also recorded: minimal cellular cytotoxicity”.
